Among the data in ChEMBL document CHEMBL5528035, “Design, Synthesis, and Biological Evaluation for First GPX4 and CDK Dual Inhibitors” (J Med Chem, 2024) are IC50 and inhibition values, retold here.

Assay [1] relates to HCT-116. Nature of the assay: cells. As to conditions: Homo sapiens, HCT-116, 48 h.
Description: Antiproliferative activity against human HCT-116 cells assessed as inhibition of cell growth incubated for 48 hrs by CCK-8 assay
The target in assay [2] is CDK6/cyclin D3 (Homo sapiens) (UniProt P30281+Q00534). Nature of the assay: Inhibition of CDK6/CyclinD3 (unknown origin) at 100 nM preincubated for 15 mins followed by substrate and ATP addition incubated for 10 mins by ADP-glo luminescent assay relative to control. To be noted: time 25.0 min. In kind it is protein-complex assay.
For assay [3], the target named is CDK2/Cyclin A2 (Homo sapiens) (UniProt P24941+P20248). Put plainly: Inhibition of CDK2/CyclinA2 (unknown origin) at 100 nM preincubated for 15 mins followed by substrate and ATP addition incubated for 10 mins by ADP-glo luminescent assay relative to control. To be noted: time 25.0 min. Format: protein-complex assay. In general terms: In ADP-Glo the light output rises with the ADP produced.

For assay [4], the system named is A549. Put plainly: cells. As to conditions: Homo sapiens, A549, 48 h.
Description: Antiproliferative activity against human A549 cells assessed as inhibition of cell growth incubated for 48 hrs by CCK-8 assay
Assay [5] concerns MDA-MB-231. Put plainly: cells. To be noted: Homo sapiens, MDA-MB-231, 48 h.
Description: Antiproliferative activity against human MDA-MB-231 cells assessed as inhibition of cell growth incubated for 48 hrs by CCK-8 assay
The subject of assay [6] is HepG2. Put plainly: cells. As to conditions: Homo sapiens, HepG2, 48 h.
Description: Antiproliferative activity against human HepG2 cells assessed as inhibition of cell growth incubated for 48 hrs by CCK-8 assay

For orientation: IC50 means the midpoint of a concentration-inhibition curve. Read a high IC50 as weaker potency. Broadly, the inhibition is how much of the control response was suppressed.

`O=C(CCn1cc(COc2ccc(N(C(=O)CCl)C(C(=O)NCCc3ccccc3)c3cccs3)cc2Cl)nn1)O/N=C1/C(=C2/C(=O)Nc3ccccc32)Nc2cc(F)ccc21` (stereo not drawn): the IC50 is 6.81 µM in assay [1], 6.69 µM in assay [4], 7.12 µM in assay [5] and 8.19 µM in assay [6]. The inhibition in assay [2] was determined as 29.7%; in assay [3] it was 9.85%.
With `COc1ccc2c(c1)NC(=C1\C(=O)Nc3ccccc31)/C2=N/OC(=O)CCn1cc(COc2ccc(N(C(=O)CCl)C(C(=O)NCCc3ccccc3)c3cccs3)cc2Cl)nn1` (stereo not drawn), the half-inhibitory concentration (IC50) was 4.03 µM in assay [1], 4.6 µM in assay [4], 3.88 µM in assay [5] and 7.88 µM in assay [6]. The inhibition in assay [2] turned out to be 47%; in assay [3] it was 12.6%.
As to `O=C(CCn1cc(COc2ccc(N(C(=O)CCl)C(C(=O)NCCc3ccccc3)c3cccs3)cc2Cl)nn1)NCCCO/N=C1/C(=C2/C(=O)Nc3cc(Cl)c(Cl)cc32)Nc2ccccc21` (stereo not drawn), the IC50 in assay [1], in assay [4], in assay [5] and in assay [6] was more than 10 µM throughout. Besides, the inhibition in assay [2] amounted to 12.8%; in assay [3], 14%.
On to `O=C(CCn1cc(COc2ccc(N(C(=O)CCl)C(C(=O)NCCc3ccccc3)c3cccs3)cc2Cl)nn1)O/N=C1/C(=C2/C(=O)Nc3ccccc32)Nc2cc(F)c(F)cc21` (stereo not drawn), for which the concentration for half-maximal inhibition (IC50) in assay [1], in assay [4], in assay [5] and in assay [6] was more than 10 µM in each case. Also, the inhibition worked out at 24.4% in assay [2] and 10.5% in assay [3].
As for `COc1ccc2c(c1)/C(=C1/Nc3ccccc3/C1=N\OCCCNC(=O)CCn1cc(COc3ccc(N(C(=O)CCl)C(C(=O)NCCc4ccccc4)c4cccs4)cc3Cl)nn1)C(=O)N2` (stereo not drawn), the half-maximal inhibitory concentration (IC50) amounted to 1.96 µM in assay [1], 4.09 µM in assay [4], 2.01 µM in assay [5] and 4.66 µM in assay [6]. The inhibition in assay [2] was 40%; in assay [3], 26.6%.
Turning to `O=C(CCn1cc(COc2ccc(N(C(=O)CCl)C(C(=O)NCCc3ccccc3)c3cccs3)cc2Cl)nn1)O/N=C1/C(=C2/C(=O)Nc3ccccc32)Nc2ccc(F)cc21` (stereo not drawn), the IC50 in assay [1] came to 4.25 µM; in assay [4], 6.37 µM; in assay [5], 3.24 µM; in assay [6], 5.58 µM. In addition, the inhibition in assay [2] was determined as 21.4%; in assay [3], 19.6%.
For the compound `O=C(CCn1cc(COc2ccc(N(C(=O)CCl)C(C(=O)NCCc3ccccc3)c3cccs3)cc2Cl)nn1)O/N=C1/C(=C2/C(=O)Nc3ccccc32)Nc2ccc(Br)cc21` (stereo not drawn), the IC50 in assay [1], in assay [4], in assay [5] and in assay [6] was more than 10 µM each time. The values for the inhibition in assay [2] and in assay [3] were 34.9% and 13.3%, respectively.
As to `O=C(CCn1cc(COc2ccc(N(C(=O)CCl)C(C(=O)NCCc3ccccc3)c3cccs3)cc2Cl)nn1)O/N=C1/C(=C2/C(=O)Nc3ccccc32)Nc2cc(Cl)c(Cl)cc21` (stereo not drawn), the concentration for half-maximal inhibition (IC50) in assay [1], in assay [4], in assay [5] and in assay [6] was more than 10 µM each time. Further, the inhibition was found to be 10.4% in assay [2] and 5.9% in assay [3].
With `O=C(CCn1cc(COc2ccc(N(C(=O)CCl)C(C(=O)NCCc3ccccc3)c3cccs3)cc2Cl)nn1)O/N=C1/C(=C2/C(=O)Nc3ccccc32)Nc2cc(Br)ccc21` (stereo not drawn), the IC50 in assay [1], in assay [4], in assay [5] and in assay [6] was more than 10 µM each time. Moreover, the results for the inhibition in assay [2] and in assay [3] were 14.7% and 5.41%, respectively.
As for `O=C(CCn1cc(COc2ccc(N(C(=O)CCl)C(C(=O)NCCc3ccccc3)c3cccs3)cc2Cl)nn1)NCCCO/N=C1/C(=C2/C(=O)Nc3cc(Cl)ccc32)Nc2ccccc21` (stereo not drawn), the half-maximal inhibitory concentration (IC50) is 7.17 µM in assay [1], 9.09 µM in assay [4], 7.46 µM in assay [5] and 9 µM in assay [6]. The inhibition in assay [2] was determined as 38.5%; in assay [3] it was 31%.
Turning to `O=C(CCn1cc(COc2ccc(N(C(=O)CCl)C(C(=O)NCCc3ccccc3)c3cccs3)cc2Cl)nn1)NCCCO/N=C1/C(=C2/C(=O)Nc3cc(Br)c(Br)cc32)Nc2ccccc21` (stereo not drawn), the half-inhibitory concentration (IC50) in assay [1], in assay [4], in assay [5] and in assay [6] was more than 10 µM each time. Further, the inhibition in assay [2] came out at 4.65%; in assay [3] it was 4.02%.
Take `O=C(CCn1cc(COc2ccc(N(C(=O)CCl)C(C(=O)NCCc3ccccc3)c3cccs3)cc2Cl)nn1)O/N=C1/C(=C2/C(=O)Nc3ccccc32)Nc2ccccc21` (stereo not drawn): the IC50 in assay [1] worked out at 7.45 µM; in assay [4], 7.72 µM; in assay [5], 7.89 µM; in assay [6] it was 8.18 µM. Besides, the inhibition in assay [2] amounted to 46.3%; in assay [3], 8.89%.
On to `O=C(CCn1cc(COc2ccc(N(C(=O)CCl)C(C(=O)NCCc3ccccc3)c3cccs3)cc2Cl)nn1)NCCCO/N=C1/C(=C2/C(=O)Nc3cc(Br)ccc32)Nc2ccccc21` (stereo not drawn), for which the IC50 in assay [1] was more than 10 µM; in assay [4] it was more than 10 µM; in assay [5], 8.69 µM; in assay [6], more than 10 µM. The inhibition in assay [2] was determined as 28.3%; in assay [3], 22.4%.
In the case of `O=C(CCn1cc(COc2ccc(N(C(=O)CCl)C(C(=O)NCCc3ccccc3)c3cccs3)cc2Cl)nn1)NCCCO/N=C1/C(=C2/C(=O)Nc3ccc(F)cc32)Nc2ccccc21` (stereo not drawn), the IC50 in assay [1] is 1.99 µM; in assay [4], 1.88 µM; in assay [5] it was 1.64 µM; in assay [6], 4.92 µM. Further, the inhibition came to 36.2% in assay [2] and 3.17% in assay [3].
Turning to `O=C(CCn1cc(COc2ccc(N(C(=O)CCl)C(C(=O)NCCc3ccccc3)c3cccs3)cc2Cl)nn1)NCCCO/N=C1/C(=C2/C(=O)Nc3ccc(Br)cc32)Nc2ccccc21` (stereo not drawn), the IC50 is 8.77 µM in assay [1], more than 10 µM in assay [4], more than 10 µM in assay [5] and more than 10 µM in assay [6]. Further, the inhibition in assay [2] was 21.3%; in assay [3], 15.5%.
Consider `O=C(CCn1cc(COc2ccc(N(C(=O)CCl)C(C(=O)NCCc3ccccc3)c3cccs3)cc2Cl)nn1)NCCCO/N=C1/C(=C2/C(=O)Nc3cc(F)ccc32)Nc2ccccc21` (stereo not drawn), for which the IC50 came to 2.91 µM in assay [1], 6.6 µM in assay [4], 3.96 µM in assay [5] and 4.12 µM in assay [6]. Also, the inhibition was found to be 36.8% in assay [2] and 28.9% in assay [3].
With `COc1ccc2c(c1)C(=N\OC(=O)CCn1cc(COc3ccc(N(C(=O)CCl)C(C(=O)NCCc4ccccc4)c4cccs4)cc3Cl)nn1)/C(=C1/C(=O)Nc3ccccc31)N2` (stereo not drawn), the IC50 in assay [1] is 6.97 µM; in assay [4], 7.04 µM; in assay [5] it was 4.65 µM; in assay [6] it was 8.36 µM. For the same compound, the inhibition was determined as 22% in assay [2] and 14.1% in assay [3].
As to `O=C(CCn1cc(COc2ccc(N(C(=O)CCl)C(C(=O)NCCc3ccccc3)c3cccs3)cc2Cl)nn1)NCCCO/N=C1/C(=C2/C(=O)Nc3cc(F)c(F)cc32)Nc2ccccc21` (stereo not drawn), the IC50 in assay [1] was 9.63 µM; in assay [4], 8.32 µM; in assay [5], more than 10 µM; in assay [6], more than 10 µM. For the same compound, the inhibition in assay [2] stood at 16.1%; in assay [3] it was 1.12%.
For the compound `O=C(CCn1cc(COc2ccc(N(C(=O)CCl)C(C(=O)NCCc3ccccc3)c3cccs3)cc2Cl)nn1)NCCCO/N=C1/C(=C2/C(=O)Nc3ccc(Cl)cc32)Nc2ccccc21` (stereo not drawn), the concentration for half-maximal inhibition (IC50) in assay [1] came to 4.25 µM; in assay [4], 2.67 µM; in assay [5], 5.65 µM; in assay [6], 4.83 µM. Besides, the inhibition in assay [2] stood at 39.4%; in assay [3], 28.1%.
As to `O=C(CCn1cc(COc2ccc(N(C(=O)CCl)C(C(=O)NCCc3ccccc3)c3cccs3)cc2Cl)nn1)O/N=C1/C(=C2/C(=O)Nc3ccccc32)Nc2ccc(Cl)cc21` (stereo not drawn), the IC50 in assay [1] came to 4.44 µM; in assay [4], 5.15 µM; in assay [5], 5.25 µM; in assay [6], 7.16 µM. Further, the inhibition in assay [2] came to 40.4%; in assay [3], 13.5%.
`O=C(CCn1cc(COc2ccc(N(C(=O)CCl)C(C(=O)NCCc3ccccc3)c3cccs3)cc2Cl)nn1)O/N=C1/C(=C2/C(=O)Nc3ccccc32)Nc2cc(Cl)ccc21` (stereo not drawn): the IC50 is 7.32 µM in assay [1], 6.27 µM in assay [4], 7.78 µM in assay [5] and 7.51 µM in assay [6]. Moreover, the inhibition in assay [2] came to 37.1%; in assay [3], 8.53%.
Turning to `O=C(CCn1cc(COc2ccc(N(C(=O)CCl)C(C(=O)NCCc3ccccc3)c3cccs3)cc2Cl)nn1)NCCCO/N=C1/C(=C2/C(=O)Nc3ccccc32)Nc2ccccc21` (stereo not drawn), the IC50 was 1.49 µM in assay [1], 2.85 µM in assay [4], 1.2 µM in assay [5] and 2.02 µM in assay [6]. The inhibition in assay [2] is 52.1%; in assay [3], 22.1%.
On to `O=C(CCn1cc(COc2ccc(N(C(=O)CCl)C(C(=O)NCCc3ccccc3)c3cccs3)cc2Cl)nn1)O/N=C1/C(=C2/C(=O)Nc3ccccc32)Nc2cc(Br)c(Br)cc21` (stereo not drawn), for which the IC50 in assay [1], in assay [4], in assay [5] and in assay [6] was more than 10 µM each time. Also, the inhibition in assay [2] was 9.29%; in assay [3], 1.46%.
